# Data taken from ChEMBL document CHEMBL1147818, “1,1'-Xylyl bis-1,4,8,11-tetraaza cyclotetradecane: a new potential copper chelator agent for neuroprotection in Alzheimer's disease. Its comparative effects with clioquinol on rat brain copper distribution” (Bioorg Med Chem Lett, 2006).
# Columns and labels:
# Rattus norvegicus [1] = assay: Distribution of copper per 100 ml of Wistar rat blood at 5 mg/kg, iv after 1 hr; type: ADME, organism-based; design: dose 5 mg/kg, route intravenous; settings: in vivo
# Rattus norvegicus [2] = assay: Decrease in copper concentration in Wistar rat CSF at 5 mg/kg, iv after 1 hr relative to control; type: functional; design: scale not given: the % may be the effect or the level left
Ct (Rattus norvegicus [1]) [µg],Compound,Activity (Rattus norvegicus [2]) [%]
135,CC(C)(S)[C@@H](N)C(=O)O [PENICILLAMINE],
126,Oc1c(I)cc(Cl)c2cccnc12 [CLIOQUINOL],70
142,c1cc(CN2CCCNCCNCCCNCC2)ccc1CN1CCCNCCNCCCNCC1 [PLERIXAFOR],70
